Laboratory results reported in patent publication US6277872A, “Oxadiazoles, processes for their preparation and their use as medicaments” (Boehringer Ingelheim KG, priority 1996, dated 2001).

Tests used:
[1] = biological target: T1, Histamine H1 receptor (Cavia porcellus, UniProt P31389); test: Histamine H1 receptor binding study; settings: test concentration typically 10 μM; read-out: H1 Inh. [%]
T1 construct: from tissue
Description: Table 5 summarises the inhibitory values on the above receptors:

[2] = tested on: "Na+ channel site 2"-binding site; test: Binding to the Na+ channel site 2 binding site ([3H]-BTX); settings: test concentration typically 10 μM
Procedure: (§1) The tests were typically carried out at a test concentration of 10 μM.

[3] = tested on: AMPA receptor; test: Inhibition of the cainate-induced signal at the AMPA receptor, electrophysiology on neuronal cells (Patch-Clamp-Method); type: cell-based; settings: test concentration of 100 μM
Procedure: The tests were carried out at a test concentration of 100 μM.

[4] = tested on: permanent focal cerebral ischaemia (MCAO); test: Stroke model in the rat, permanent focal cerebral ischaemia by occlusion of the arteria cerebri media (MCAO); type: in vivo
Description: A permanent focal cerebral ischaemia was induced by surgical occlusion of the arteria cerbri media (MCAO) (based on A. Tamura, D. I. Graham, J. McCulloch and G. M. Teasdale, J. Cereb. Blood Flow Metab. 1 (1981) 53-60).

[5] = tested on: Sigma receptor; test: Sigma receptor binding study; settings: test concentration typically 10 μM
Procedure: as §1

T1 sequence (P31389 whole entry): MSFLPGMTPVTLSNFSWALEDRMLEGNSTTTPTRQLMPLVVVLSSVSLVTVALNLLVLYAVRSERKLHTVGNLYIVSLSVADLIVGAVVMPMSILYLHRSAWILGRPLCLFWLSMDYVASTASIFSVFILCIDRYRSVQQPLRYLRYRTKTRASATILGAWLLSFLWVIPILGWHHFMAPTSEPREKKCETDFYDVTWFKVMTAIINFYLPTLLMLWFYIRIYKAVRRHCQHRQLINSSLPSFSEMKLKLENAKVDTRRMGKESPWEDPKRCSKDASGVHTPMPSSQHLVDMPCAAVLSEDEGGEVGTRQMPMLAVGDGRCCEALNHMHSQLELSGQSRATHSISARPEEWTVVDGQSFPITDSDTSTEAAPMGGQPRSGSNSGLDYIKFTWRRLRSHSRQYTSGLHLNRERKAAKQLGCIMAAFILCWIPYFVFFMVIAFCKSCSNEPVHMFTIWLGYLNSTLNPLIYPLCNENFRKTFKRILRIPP

Structure (SMILES) | inhibition at 10 µM [1] | Na+-channel Inh. [%] ([3H]-BTX) [2] | AMPA Inh. [%] (inhibiting the cainate-induced signal at the AMPA receptor) [3] | volume of the lesion [4] | Sigma Inh. [%] [5]
CN(C)CCOc1ccccc1-c1nc(-c2ccccc2)no1 [Example 2, 5-{2-[2-(N,N-dimethylamino)ethyl]oxy-phenyl}-3-phenyl-1,2,4-oxadiazole] | 99% | 86% | 86% | reduce the volume of the lesion significantly | 62%
CN(C)CCOc1ccccc1-c1nc(-c2ccccc2F)no1 [Example 34] | 96% | 88% | 97% | – | 75%
NCCOc1ccccc1-c1nc(-c2ccccc2)no1 [Example 24, 5-[2-(2-aminoethyl)oxy-phenyl]-3-phenyl-1,2,4-oxadiazole] | 27% | 89% | 96% | – | 52%
